The values below come from US8937072B2, “Substituted cyanoaniline compounds, preparation and use thereof” (Sinochem Corporation, priority 2011, dated 2015).

The test system of one assay is rice blast. Put plainly: microbe, parasite or virus in culture. It counts as cell-based. The note with it: for inhibition at 0.03 µg/mL: read-out: the inhibition rate against rice blast (%) 0.03 mg/L; for inhibition at 0.1 µg/mL: read-out: the inhibition rate against rice blast (%) 0.1 mg/L; for the inhibition rate against rice blast (%) 0.03 mg/L: Table 21, 0.03 mg/L; for the inhibition rate against rice blast (%) 0.1 mg/L: Table 21, 0.1 mg/L; for the inhibition rate against rice blast (%) 0.3 mg/L: Table 21, 0.3 mg/L.

For another assay, the system named is cucumber gray mold. The assay is described as follows: Activity in vitro (96-well, High Through Put): inhibition rate against cucumber gray mold. Type of assay: cell-based. The note with it: for inhibition at 25 µg/mL: dose 25 mg/L. The method, boiled down:
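Compound in acetone, methanol or DMF was combined with pathogen suspension under sterile conditions and held in a constant-temperature box. After 24 hours germination or growth was scored by eye against an untreated control to give the inhibition rate.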

In another assay the test system is cucumber downy mildew. Put plainly: Protectant activity in vivo (whole plant) against cucumber downy mildew. The method, boiled down:
(§1)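 Compound stock in organic solvent (≤5% v/v) diluted in water with 0.1% Tween-80 and sprayed onto whole host plants. Fungal inoculation 24 h later; humidity chamber then greenhouse as the pathogen requires. Activity rated visually, usually after 7 days.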

The test system of the next assay is corn rust. Put plainly: Protectant activity in vivo (whole plant) against corn rust. The note with it: for pest or weed control at 400 µg/mL / pest or weed control at 6.25 µg/mL / pest or weed control at 25 µg/mL / pest or weed control at 100 µg/mL: Zea mays, 168 h. The method, boiled down: as §1
The mark [1] stands for this setting: Pyricularia oryzae, read-out: the inhibition rate against rice blast (%) 0.3 mg/L.
Where [2] appears, read: 0.9 mg/L, read-out: the inhibition rate against cucumber gray mold (%).
Setting [3] is: 2.8 mg/L, read-out: the inhibition rate against cucumber gray mold (%).
Where [4] appears, read: 8.3 mg/L, read-out: the inhibition rate against cucumber gray mold (%).
Where [5] appears, read: Cucumis sativus, 168 h, 25 mg/L, read-out: the protectant activity (%) against cucumber downy mildew.
The mark [6] stands for this setting: Cucumis sativus, 168 h, 50 mg/L, read-out: the protectant activity (%) against cucumber downy mildew.
The mark [7] stands for this setting: Cucumis sativus, 168 h, 100 mg/L, read-out: the protectant activity (%) against cucumber downy mildew.
Setting [8] is: 400 mg/L, read-out: the protectant activity (%) against corn rust.
[9] abbreviates: Pyricularia oryzae, read-out: inhibition rate against rice blast.
The mark [10] stands for this setting: dose 400 mg/L, read-out: protectant activity against corn rust in vivo.
Where [11] appears, read: Cucumis sativus, 168 h, 12.5 mg/L.

Where two headings read alike, the source gives them in different places.

As for `N#Cc1c(Cl)c(Cl)c(Cl)c(C#N)c1Cl` [chlorothalonil], in the assay with rice blast (Pyricularia oryzae), the inhibition at 0.03 µg/mL is 0% and the inhibition at 0.1 µg/mL came out at 30%. For the same compound, the inhibition at 0.3 µg/mL in the assay on rice blast (setting [1]) is 100%. The compound further came in with an inhibition at 0.3 µg/mL in the assay on cucumber gray mold (0.3 mg/L) of 80%. For the same compound, the inhibition at 0.9 µg/mL with cucumber gray mold (setting [2]) was found to be 100%. Also, the inhibition at 2.8 µg/mL in the assay with cucumber gray mold (setting [3]) came to 100%. Besides, the inhibition at 8.3 µg/mL in the assay with cucumber gray mold (setting [4]) stood at 100%. In addition, in the assay with cucumber downy mildew (setting [5]), the pest or weed control at 25 µg/mL turned out to be 30%. Also, the pest or weed control at 50 µg/mL with cucumber downy mildew (setting [6]) is 80%. Also, in the assay with cucumber downy mildew (setting [7]), the pest or weed control at 100 µg/mL was 100%. In the assay on corn rust (setting [8]), the pest or weed control at 400 µg/mL came to 50%.

On to `CCOc1ccccc1Nc1c(F)c(F)c(C#N)c(C#N)c1F` [KC26], for which the inhibition at 25 µg/mL in the assay on rice blast (setting [9]) and in the assay with cucumber gray mold (in vitro) was 0% throughout. Besides, the inhibition at 0.03 µg/mL in the assay with rice blast (Pyricularia oryzae) amounted to 0%. Further, the inhibition at 0.1 µg/mL in the assay with rice blast (Pyricularia oryzae) is 0%. Also, the inhibition at 0.3 µg/mL in the assay on rice blast (setting [1]) and with cucumber gray mold (0.3 mg/L) was 0% throughout. In addition, the inhibition at 0.9 µg/mL in the assay with cucumber gray mold (setting [2]) amounted to 0%. Further, the inhibition at 2.8 µg/mL in the assay with cucumber gray mold (setting [3]) was found to be 0%. In addition, the inhibition at 8.3 µg/mL with cucumber gray mold (setting [4]) worked out at 0%. Also, the pest or weed control at 6.25 µg/mL in the assay on corn rust (6.25 mg/L) is 0%. For the same compound, in the assay with corn rust (25 mg/L), the pest or weed control at 25 µg/mL was found to be 0%. The pest or weed control at 100 µg/mL with corn rust (100 mg/L) was 0%. The pest or weed control at 400 µg/mL in the assay on corn rust (setting [8]) and in the assay on corn rust (setting [10]) was 0% throughout.

On to `N#Cc1c(Cl)c(Cl)c(Nc2c(F)cc([N+](=O)[O-])cc2F)c(Cl)c1C#N` [Compound A-43], for which the “the inhibition rate against rice blast (%) 0.03 mg/L” value (from here on “the inhibition rate … (%) 0.03 mg/L”) in the assay on rice blast is 100%. In the assay on rice blast, the “the inhibition rate against rice blast (%) 0.1 mg/L” value (from here on “the inhibition rate … (%) 0.1 mg/L”) is 100%. Also, the “the inhibition rate against rice blast (%) 0.3 mg/L” value (“the inhibition rate … (%) 0.3 mg/L” for short) with rice blast turned out to be 100%. Further, the “the inhibition rate against cucumber gray mold (%)” value with cucumber gray mold (0.3 mg/L), with cucumber gray mold (0.9 mg/L), in the assay on cucumber gray mold (2.8 mg/L) and in the assay on cucumber gray mold (8.3 mg/L) was 100% each time. The “protectant activity against corn rust in vivo” value in the assay with corn rust (dose 400 mg/L) turned out to be 100%.

`N#Cc1c(Cl)c(Cl)c(C#N)c(Nc2c(F)cc([N+](=O)[O-])cc2Cl)c1Cl` [Compound C-46]: the “the inhibition rate … (%) 0.03 mg/L” value in the assay on rice blast came out at 100%. For the same compound, the “the inhibition rate … (%) 0.1 mg/L” value in the assay with rice blast worked out at 100%. Further, the “the inhibition rate … (%) 0.3 mg/L” value in the assay on rice blast turned out to be 100%. The “the inhibition rate against cucumber gray mold (%)” value with cucumber gray mold (0.3 mg/L), in the assay on cucumber gray mold (0.9 mg/L), in the assay on cucumber gray mold (2.8 mg/L) and with cucumber gray mold (8.3 mg/L) was 100% throughout. The “protectant activity against corn rust in vivo” value in the assay on corn rust (dose 400 mg/L) was 80%.

Take `CN(C)c1ccc(Nc2c(Cl)c(F)c(C#N)c(F)c2C#N)cc1` [KC25]: the inhibition at 25 µg/mL in the assay with rice blast (setting [9]) and with cucumber gray mold (in vitro) was 0% each time. The inhibition at 0.03 µg/mL in the assay with rice blast (Pyricularia oryzae) amounted to 0%. Besides, in the assay with rice blast (Pyricularia oryzae), the inhibition at 0.1 µg/mL stood at 0%. Besides, the inhibition at 0.3 µg/mL in the assay on rice blast (setting [1]) and with cucumber gray mold (0.3 mg/L) was 0% in each case. In addition, the inhibition at 0.9 µg/mL in the assay on cucumber gray mold (setting [2]) was 0%. Besides, the inhibition at 2.8 µg/mL with cucumber gray mold (setting [3]) was 0%. In addition, in the assay with cucumber gray mold (setting [4]), the inhibition at 8.3 µg/mL stood at 0%. In addition, in the assay on cucumber downy mildew (setting [11]), the pest or weed control at 12.5 µg/mL was found to be 0%. Moreover, the pest or weed control at 25 µg/mL in the assay with cucumber downy mildew (setting [5]) and with corn rust (25 mg/L) was 0% in each case. For the same compound, in the assay with cucumber downy mildew (setting [6]), the pest or weed control at 50 µg/mL was found to be 0%. The pest or weed control at 100 µg/mL in the assay on cucumber downy mildew (setting [7]) and in the assay on corn rust (100 mg/L) was 0% in each case. Also, the pest or weed control at 400 µg/mL in the assay on cucumber downy mildew (Cucumis sativus, 168 h, dose 400 mg/L) is 0%; with corn rust (setting [8]) it was 0%; in the assay with corn rust (setting [10]), 0%. For the same compound, in the assay on corn rust (6.25 mg/L), the pest or weed control at 6.25 µg/mL was 0%.

In the case of `N#Cc1c(Cl)c(Cl)c(Nc2c(F)cc([N+](=O)[O-])cc2Cl)c(C#N)c1Cl` [Compound B-53], the “the inhibition rate … (%) 0.03 mg/L” value with rice blast worked out at 100%. Moreover, the “the inhibition rate … (%) 0.1 mg/L” value in the assay on rice blast was determined as 100%. In the assay with rice blast, the “the inhibition rate … (%) 0.3 mg/L” value turned out to be 100%. For the same compound, the “the inhibition rate against cucumber gray mold (%)” value in the assay with cucumber gray mold (0.3 mg/L) turned out to be 0%; in the assay with cucumber gray mold (0.9 mg/L), 100%; in the assay with cucumber gray mold (2.8 mg/L) it was 100%; in the assay on cucumber gray mold (8.3 mg/L) it was 100%. The “protectant activity against cucumber downy mildew in vivo” value in the assay with cucumber downy mildew (dose 50 mg/L) came out at 98%; with cucumber downy mildew (dose 100 mg/L), 100%; with cucumber downy mildew (dose 400 mg/L), 100%. Besides, the “the protectant activity (%) against corn rust” value amounted to 30% in the assay with corn rust (6.25 mg/L), 50% in the assay with corn rust (25 mg/L), 80% with corn rust (100 mg/L) and 100% in the assay on corn rust (400 mg/L).

In the case of `N#Cc1c(Cl)c(Cl)c(Nc2c(Cl)cncc2Cl)c(Cl)c1C#N` [Compound A-87], the “the inhibition rate … (%) 0.03 mg/L” value with rice blast is recorded as 100%. In addition, the “the inhibition rate … (%) 0.1 mg/L” value in the assay with rice blast is recorded as 100%. For the same compound, the “the inhibition rate … (%) 0.3 mg/L” value in the assay with rice blast is reported as 100%. Besides, the “inhibition rate against cucumber gray mold” value with cucumber gray mold (in vitro, dose 8.3 mg/L) came to 80%. Further, the “the protectant activity (%) against corn rust” value is on record as 50% in the assay with corn rust (6.25 mg/L), 80% in the assay with corn rust (25 mg/L), 100% in the assay on corn rust (100 mg/L) and 100% in the assay on corn rust (400 mg/L). Moreover, the “protectant activity against corn rust in vivo” value in the assay with corn rust (dose 100 mg/L) is 100%.

In the case of `COc1ccc(Nc2c(F)c(F)c(C#N)c(F)c2C#N)cc1` [KC10], the inhibition at 0.3 µg/mL with rice blast (setting [9]), in the assay with rice blast (setting [1]) and with cucumber gray mold (0.3 mg/L) was 0% each time. The results for the inhibition at 0.9 µg/mL in the assay with rice blast (setting [9]) and with cucumber gray mold (setting [2]) were 50% and 0%, respectively. The inhibition at 0.03 µg/mL in the assay with rice blast (Pyricularia oryzae) is 0%. Moreover, the inhibition at 0.1 µg/mL in the assay on rice blast (Pyricularia oryzae) is 0%. The inhibition at 2.8 µg/mL in the assay with cucumber gray mold (setting [3]) is 0%; in the assay with cucumber gray mold (in vitro, dose 2.8 mg/L, read-out: inhibition rate against cucumber gray mold), 0%. The inhibition at 8.3 µg/mL in the assay with cucumber gray mold (setting [4]) is 80%. In the assay with cucumber downy mildew (setting [11]), this compound displayed a pest or weed control at 12.5 µg/mL of 0%. Also, the pest or weed control at 25 µg/mL with cucumber downy mildew (setting [5]) turned out to be 0%; in the assay with cucumber downy mildew (Cucumis sativus, 168 h, dose 25 mg/L, read-out: protectant activity against cucumber downy mildew in vivo), 0%. Further, the pest or weed control at 50 µg/mL came out at 10% in the assay with cucumber downy mildew (setting [6]) and 10% in the assay with cucumber downy mildew (Cucumis sativus, 168 h, dose 50 mg/L, read-out: protectant activity against cucumber downy mildew in vivo). Moreover, the pest or weed control at 100 µg/mL in the assay with cucumber downy mildew (setting [7]) was 20%.

In the case of `N#Cc1c(Cl)c(Cl)c(Nc2ccc([N+](=O)[O-])cc2Cl)c(C#N)c1Cl` [Compound B-35], the “the inhibition rate … (%) 0.03 mg/L” value in the assay on rice blast is given as 50%. In addition, the “the inhibition rate … (%) 0.1 mg/L” value in the assay with rice blast is reported as 80%. Further, the “the inhibition rate … (%) 0.3 mg/L” value in the assay on rice blast was 100%. Further, the “the inhibition rate against cucumber gray mold (%)” value in the assay with cucumber gray mold (0.3 mg/L), in the assay on cucumber gray mold (0.9 mg/L), with cucumber gray mold (2.8 mg/L) and in the assay on cucumber gray mold (8.3 mg/L) was 100% throughout. Moreover, the “the protectant activity (%) against cucumber downy mildew” value in the assay with cucumber downy mildew (12.5 mg/L) was 98%; with cucumber downy mildew (25 mg/L) it was 98%; in the assay with cucumber downy mildew (50 mg/L), 98%; in the assay with cucumber downy mildew (100 mg/L) it was 100%. For the same compound, the “protectant activity against cucumber downy mildew in vivo” value with cucumber downy mildew (dose 12.5 mg/L) is recorded as 98%; with cucumber downy mildew (dose 50 mg/L) it was 98%; in the assay on cucumber downy mildew (dose 100 mg/L), 100%; with cucumber downy mildew (dose 400 mg/L) it was 100%.
